Experiments:
Rattus norvegicus [1] = species: Rattus norvegicus; assay: animal or person; settings: po, read-out: Inhibition
Description: Percent inhibition of pleural inflammation in carrageenan-induced rat model was determined by comparing with vehicle control group when tested on 8 rats at peroral dose of 100 umol/Kg

Rattus norvegicus [2] = assay: Percent inhibition of edema in carrageenan-induced rat paw edema was determined by comparing with vehicle control group when tested on 5 rats at peroral dose of 100 umol/Kg; type: functional; settings: po
Rattus norvegicus [3] = assay: Percent inhibition of pleural inflammation in carrageenan-induced rat model was determined by comparing with vehicle control group when tested on 5 rats at peroral dose of 100 umol/Kg; type: functional; settings: po
Rattus norvegicus [4] = assay: Percent inhibition of edema in carrageenan-induced rat paw edema was determined by comparing with vehicle control group when tested on 14 rats at peroral dose of 100 umol/Kg; Not significant; type: functional; settings: po
Rattus norvegicus [5] = assay: Percent inhibition of edema in carrageenan-induced rat paw edema was determined by comparing with vehicle control group when tested on 10 rats at peroral dose of 100 umol/Kg; type: functional; settings: po
Rattus norvegicus [6] = assay: Percent inhibition of pleural inflammation in carrageenan-induced rat model was determined by comparing with vehicle control group when tested on 10 rats at peroral dose of 100 umol/Kg; type: functional; settings: po

Row | Compound | inhibition in vivo at 100 µmol/kg (Rattus norvegicus [2]) [%] | inhibition in vivo at 100 µmol/kg (Rattus norvegicus [3]) [%] | also measured
1 | CS(=O)(=O)Nc1ccc([N+](=O)[O-])cc1Oc1ccccc1 [NIMESULIDE] | 61.7 | – | inhibition in vivo at 100 µmol/kg (Rattus norvegicus [1]): 29.9%
2 | CNS(=O)(=O)c1cc2c(cc1Cc1ccccc1)OCO2 | – | 46 | inhibition in vivo at 100 µmol/kg (Rattus norvegicus [4]): 2.7%
3 | O=S(=O)(Nc1ccccc1)c1cc2c(cc1Cc1ccccc1)OCO2 | 27.2 | 24.6 | –
4 | CS(=O)(=O)Nc1cc2c(cc1Cc1ccccc1)OCO2 | – | 43.1 | inhibition in vivo at 100 µmol/kg (Rattus norvegicus [5]): 21%
5 | CS(=O)(=O)Nc1cc2c(cc1Cc1cccc(C(F)(F)F)c1)OCO2 | 19.7 | 24.6 | –
6 | COc1ccc2c(c1)c(CC(=O)O)c(C)n2C(=O)c1ccc(Cl)cc1 [INDOMETHACIN] | 85.4 | – | inhibition in vivo at 100 µmol/kg (Rattus norvegicus [6]): 31.7%

Reference: ChEMBL document CHEMBL1131266, “Synthesis and pharmacological evaluation of new flosulide analogues, synthesized from natural safrole” (1998)
